Experimental data: US20210246115A1 (Bioimics AB, priority 2017, published 2021)
Where a name gives a salt, the structure may show the parent alone. Read-outs that look alike come from different tables or passages of the source.

Columns and labels:
[1] = test system: Enterococcus faecalis (ATCC29212); assay: MIC, broth microdilution (CLSI), Enterococcus faecalis; format: cell-based; conditions: ATCC29212, Table XIV A. Gram-positive bacteria, read-out: E. faecalis ATCC 29212 MIC
[2] = test system: Pseudomonas aeruginosa (ATCC27853); assay: MIC, broth microdilution (CLSI), Pseudomonas aeruginosa; format: cell-based; conditions: ATCC27853, Table XIV B. Gram-negative bacteria, read-out: P. aeruginosa ATCC 27853 MIC
[3] = test system: Staphylococcus aureus subsp. aureus (ATCC29213); assay: MIC, broth microdilution (CLSI), Staphylococcus aureus ATCC29213; format: cell-based; conditions: Staphylococcus aureus, read-out: S. aureus ATCC 29213 MIC
[4] = test system: E. coli RNase P RNA, M1 RNA; assay: Inhibition of bacterial RNase P activity, IC50 determination (cleavage of pATSerUG by M1 RNA); format: biochemical; conditions: NI: No inhibition
[5] = test system: S. aureus MRSA ATCC 33591; assay: MIC, S. aureus MRSA ATCC 33591; format: cell-based; conditions: Staphylococcus aureus; Table XIV A. Gram-positive bacteria; read-out: S. aureus MRSA ATCC 33591 MIC
[6] = test system: S. aureus USA300 MRSA BAA-1717; assay: MIC, S. aureus USA300 MRSA BAA-1717; format: cell-based; conditions: Staphylococcus aureus; Table XIV A. Gram-positive bacteria; read-out: S. aureus USA300 MRSA BAA-1717 MIC
E. faecium ATCC 700221 = assay: MIC, E. faecium ATCC 700221; format: cell-based; conditions: Enterococcus faecium, ATCC700221; Table XIV A. Gram-positive bacteria; read-out: E. faecium ATCC 700221 MIC
S. pneumoniae ATCC 49619 = assay: MIC, S. pneumoniae ATCC 49619; format: cell-based; conditions: Streptococcus pneumoniae, ATCC49619; Table XIV A. Gram-positive bacteria
M. phlei ATCC 11758 = assay: MIC, M. phlei ATCC 11758; format: cell-based; conditions: Mycolicibacterium phlei, ATCC11758; Table XIV A. Gram-positive bacteria
M. fortuitum ATCC 110 = assay: MIC, M. fortuitum ATCC 110; format: cell-based; conditions: Mycolicibacterium fortuitum, ATCC110; Table XIV A. Gram-positive bacteria
[7] = test system: E. coli JW5503 (efflux defective); assay: MIC, E. coli JW5503 (efflux defective); format: cell-based; conditions: Escherichia coli, read-out: E. coli JW5503 (efflux defective) MIC
K. pneumoniae ATCC 43816 = assay: MIC, K. pneumoniae ATCC 43816; format: cell-based; conditions: Klebsiella pneumoniae, ATCC43816; Table XIV B. Gram-negative bacteria
H. influenzae ATCC 49247 = assay: MIC, H. influenzae ATCC 49247; format: cell-based; conditions: Haemophilus influenzae, ATCC49247; Table XIV B. Gram-negative bacteria
A. baumannii ATCC 17978 = assay: MIC, A. baumannii ATCC 17978; format: cell-based; conditions: Acinetobacter baumannii, ATCC17978; Table XIV B. Gram-negative bacteria
[8] = test system: P. aeruginosa NTUH974 (MDR); assay: MIC, P. aeruginosa NTUH974 (MDR); format: cell-based; conditions: Pseudomonas aeruginosa; Table XIV B. Gram-negative bacteria; read-out: P. aeruginosa NTUH974 (MDR) MIC
[9] = test system: N. gonorrhoeae ATCC 700825; assay: MIC, N. gonorrhoeae ATCC 700825; format: cell-based; conditions: Neisseria gonorrhoeae, ATCC700825; Table XIV B. Gram-negative bacteria
[10] = test system: Escherichia coli (ATCC25922); assay: MIC, broth microdilution (CLSI), Escherichia coli; conditions: for MIC: Escherichia coli
[11] = test system: Staphylococcus aureus (ATCC25923); assay: MIC, broth microdilution (CLSI), Staphylococcus aureus ATCC25923; conditions: for MIC: Staphylococcus aureus, ATCC25923, read-out: S. aureus ATCC 25923 MIC
Experimental: Initial minimal inhibitory concentration (MIC) tests were made on two bacterial strains: • Escherichia coli (ATCC25922) • Staphylococcus aureus (ATCC25923).
MIC values were determined using the standard broth microdilution procedure based on the guidelines by the Clinical and Laboratory Standards Institute (CLSI). Briefly, the compounds were dissolved in DMSO to 10 mM. They were diluted in cation-adjusted Mueller-Hinton broth (CAMHB) to four times the highest concentration tested. A serial two-fold dilution in CAMHB was done in microdilution plates. The inoculum of bacterial strain to be tested was prepared by making a suspension of colonies from an 18 to 24 hours old plate in CAMHB. The inoculum was diluted so that, after inoculation, each well contained approximately 5×10^5 CFU/mL. To a volume of 50 μl compound in CA 3 an equal volume of inoculum was added. The tray was sealed in a plastic bag and incubated at 35° C. for 16 to 20 hours. To aid in the detection of growth the dye resazurin was added to a final concentration 0.001% and incubated at room temperature for 1 h. Reduction of resazurin, and therefore bacterial growth, was seen as a change from blue to pink.

[12] = test system: E. coli RNase P RNA, M1 RNA; assay: Initial screening for inhibition of RNase P activity (normalised cleavage of pATSerUG at maximum compound concentration); format: biochemical; conditions: normalised cleavage (cleavage with compound / without compound) at maximum compound concentration
[13] = ATCC29213, Table XIV A. Gram-positive bacteria
[14] = ATCC25922, read-out: E. coli ATCC 25922 MIC, Table XIV B. Gram-negative bacteria
[15] = ATCC25922, read-out: E. coli ATCC 25922 MIC, Table XIII

Compound: N[C@H]1CC[C@H](NC2CCC(c3cn(CC4CCCCC4)c4ccc(Br)cc34)CC2)CC1 (single isomer, unassigned) [Compound 266, (1r,4r)-N1-(4-(5-bromo-1-(cyclohexylmethyl)-1H-indol-3-yl)cyclohexyl)cyclohexane-1,4-diamine hydrochloride salt]
- MIC [1]: 2 µg/mL
- MIC [2]: 8 µg/mL
- MIC ([3]; ATCC29213, Table XIII): 2 µg/mL
- MIC [3, 13]: 4 µg/mL
- IC50 ([4]; hydrochloride salt): 8.5 µM
- MIC [5]: 2 µg/mL
- MIC [6]: 2 µg/mL
- MIC (E. faecium ATCC 700221): 2 µg/mL
- MIC (S. pneumoniae ATCC 49619): 8 µg/mL
- MIC (M. phlei ATCC 11758): 2 µg/mL
- MIC (M. fortuitum ATCC 110): 2 µg/mL
- MIC [7]: 4 µg/mL
- MIC (K. pneumoniae ATCC 43816): 4 µg/mL
- MIC (H. influenzae ATCC 49247): 4 µg/mL
- MIC (A. baumannii ATCC 17978): 8 µg/mL
- MIC [8]: 16 µg/mL
- MIC [9]: 2 µg/mL
- MIC [10, 14]: 4 µg/mL
- E. coli ATCC 25922 MIC ([10]; Table XIII): 2 µg/mL
- S. aureus ATCC 25923 MIC ([11]; Table XIII): 2 µg/mL

Compound: Cc1cccc(-c2ccc3c(c2)c(CCN[C@H]2CC[C@H](N)CC2)cn3CC2CCCCC2)c1 [Compound 225, (1R,4R)-N1-(2-(1-(cyclohexylmethyl)-5-(m-tolyl)-1H-indol-3-yl)ethyl)cyclohexane-1,4-diamine hydrochloride salt]
- MIC [1]: 2 µg/mL
- MIC [2]: 8 µg/mL
- MIC ([3]; ATCC29213, Table XIII): 2 µg/mL
- MIC [3, 13]: 2 µg/mL
- IC50 [4]: 11.8 µM
- MIC [5]: 2 µg/mL
- MIC [6]: 2 µg/mL
- MIC (E. faecium ATCC 700221): 1 µg/mL
- MIC (S. pneumoniae ATCC 49619): 8 µg/mL
- MIC (M. phlei ATCC 11758): 1 µg/mL
- MIC (M. fortuitum ATCC 110): 1 µg/mL
- MIC [7]: 2 µg/mL
- MIC (K. pneumoniae ATCC 43816): 2 µg/mL
- MIC (H. influenzae ATCC 49247): 4 µg/mL
- MIC (A. baumannii ATCC 17978): 2 µg/mL
- MIC [8]: 16 µg/mL
- MIC [9]: 2 µg/mL
- MIC [10, 15]: 2 µg/mL
- MIC [10, 14]: 2 µg/mL
- MIC [11]: 2 µg/mL

Compound: Cc1ccc(CN(CCc2c[nH]c3ccccc23)C(=O)CNCc2ccc(F)cc2)cc1.Cl [Compound 15, N-(2-(1H-indol-3-yl)ethyl)-2-((4-fluorobenzyl)amino)-N-(4-methylbenzyl)acetamide hydrochloride salt]
- Initial screening of RNase P Inhibition [12]: 1.10

Compound: NC1CCC(NCCC(c2cccc(OC(F)(F)F)c2)c2cn(CC3CCCCC3)c3ccccc23)CC1 [Compound 173, (1S,4S)-N1-(3-(1-(cyclohexylmethyl)-1H-indol-3-yl)-3-(3-(trifluoromethoxy)phenyl)propyl)cyclohexane-1,4-diamine hydrochloride salt]
- MIC [1]: 2 µg/mL
- MIC [2]: 16 µg/mL
- MIC ([3]; ATCC29213, Table XIII): 2 µg/mL
- MIC [3, 13]: 2 µg/mL
- IC50 [4]: 3 µM
- MIC [5]: 2 µg/mL
- MIC [6]: 2 µg/mL
- MIC (E. faecium ATCC 700221): 2 µg/mL
- MIC (S. pneumoniae ATCC 49619): 8 µg/mL
- MIC (M. phlei ATCC 11758): 1 µg/mL
- MIC (M. fortuitum ATCC 110): 2 µg/mL
- MIC [7]: 4 µg/mL
- MIC (K. pneumoniae ATCC 43816): 4 µg/mL
- MIC (H. influenzae ATCC 49247): 4 µg/mL
- MIC (A. baumannii ATCC 17978): 4 µg/mL
- MIC [8]: 16 µg/mL
- MIC [9]: 2 µg/mL
- MIC [10, 15]: 4 µg/mL
- MIC [10, 14]: 4 µg/mL
- MIC [11]: 2 µg/mL

Compound: Cc1cccc(C(CC(=O)NCCC2CCNCC2)c2cn(Cc3ccccc3)c3ccccc23)c1.Cl (centres unmarked) [Compound 86, 3-(1-benzyl-1H-indol-3-yl)-N-(2-(piperidin-4-yl)ethyl)-3-(m-tolyl)propanamide hydrochloride salt]
- Initial screening of RNase P Inhibition ([12]; hydrochloride salt): 0.78
- IC50 ([4]; hydrochloride salt): 242 µM

Compound: Cl.c1ccc2c(CCNCc3c[nH]cn3)c[nH]c2c1 [Compound 9, N-((1H-imidazol-4-yl)methyl)-2-(1H-indol-3-yl)ethan-1-amine hydrochloride salt]
- Initial screening of RNase P Inhibition [12]: 0.91

Compound: Cl.c1cc(CNCCc2c[nH]c3ccccc23)nc(N2CCCCC2)c1 [Compound 17, 2-(1H-indol-3-yl)-N-((6-(piperidin-1-yl)pyridin-2-yl)methyl)ethan-1-amine hydrochloride salt]
- Initial screening of RNase P Inhibition [12]: 0.94

Compound: Cl.Fc1ccc(CN(CCc2c[nH]c3ccccc23)Cc2ncc[nH]2)cc1 [Compound 10, N-((1H-imidazol-2-yl)methyl)-N-(4-fluorobenzyl)-2-(1H-indol-3-yl)ethan-1-amine hydrochloride salt]
- Initial screening of RNase P Inhibition [12]: 0.95

Compound: Cl.Clc1ccc(CNCCc2c[nH]c3ccccc23)c(Cl)n1 [Compound 8, N-((2,6-dichloropyridin-3-yl)methyl)-2-(1H-indol-3-yl)ethan-1-amine hydrochloride salt]
- Initial screening of RNase P Inhibition [12]: 0.96

Compound: Cl.c1c[nH]c(CNCCc2c[nH]c3ccccc23)c1 [Compound 14, N-((1H-pyrrol-2-yl)methyl)-2-(1H-indol-3-yl)ethan-1-amine hydrochloride salt]
- Initial screening of RNase P Inhibition [12]: 0.78

Compound: Cl.c1ccc2c(CCNCc3cncs3)c[nH]c2c1 [Compound 16, 2-(1H-indol-3-yl)-N-(thiazol-5-ylmethyl) ethan-1-amine hydrochloride salt]
- Initial screening of RNase P Inhibition [12]: 0.88

Compound: Cc1cccc(C(CC(=O)NCCC2CCNCC2)c2cn(Cc3ccccc3)c3ccccc23)c1.Cl (centres unmarked) [Compound 87, 3-(1-benzyl-1H-indol-3-yl)-N-(2-(piperidin-4-yl)ethyl)-3-(m-tolyl) propanamide hydrochloride salt]
- Initial screening of RNase P Inhibition ([12]; hydrochloride salt): 0.30
- IC50 ([4]; hydrochloride salt): 154 µM

Compound: Cc1cccc(C(CCNC2CCNCC2)c2cn(CC3CCCCC3)c3ccccc23)c1.Cl (centres unmarked) [Compound 122, N-(3-(1-(cyclohexylmethyl)-1H-indol-3-yl)-3-(m-tolyl)propyl)piperidin-4-amine hydrochloride salt]
- MIC [1]: 4 µg/mL
- MIC [2]: 16 µg/mL
- MIC ([3]; ATCC29213, Table XIII): 8 µg/mL
- MIC [3, 13]: 4 µg/mL
- IC50 [4]: 4 µM
- MIC [5]: 4 µg/mL
- MIC (E. faecium ATCC 700221): 2 µg/mL
- MIC (S. pneumoniae ATCC 49619): 8 µg/mL
- MIC (M. phlei ATCC 11758): 2 µg/mL
- MIC (M. fortuitum ATCC 110): 2 µg/mL
- MIC [7]: 4 µg/mL
- MIC (K. pneumoniae ATCC 43816): 4 µg/mL
- MIC (H. influenzae ATCC 49247): 4 µg/mL
- MIC (A. baumannii ATCC 17978): 8 µg/mL
- MIC [8]: 16 µg/mL
- MIC [9]: 2 µg/mL
- MIC [10, 15]: 4 µg/mL
- MIC [10, 14]: 4 µg/mL
- MIC [11]: 2 µg/mL

Compound: COc1ccc(CNCCc2c[nH]c3ccccc23)cc1.Cl [Compound 11, 2-(1H-indol-3-yl)-N-(4-methoxybenzyl)ethan-1-amine hydrochloride salt]
- Initial screening of RNase P Inhibition [12]: 0.72

Compound: Brc1cccc(CNCCc2c[nH]c3ccccc23)n1.Cl [Compound 12, N-((6-bromopyridin-2-yl)methyl)-2-(1H-indol-3-yl)ethan-1-amine hydrochloride salt]
- Initial screening of RNase P Inhibition [12]: 0.84

Compound: Brc1cccc(CNCCc2c[nH]c3ccccc23)c1.Cl [Compound 13, N-(3-bromobenzyl)-2-(1H-indol-3-yl)ethan-1-amine hydrochloride salt]
- Initial screening of RNase P Inhibition [12]: 0.97

Compound: Cc1cccc(C(CC(=O)NCCC2CCNCC2)c2cn(Cc3ccccc3)c3cccnc23)c1.Cl (centres unmarked) [Compound 85, 3-(1-benzyl-1H-pyrrolo[3,2-b]pyridin-3-yl)-N-(2-(piperidin-4-yl)ethyl)-3-(m-tolyl)propanamide hydrochloride salt]
- Initial screening of RNase P Inhibition [12]: 0.20
- IC50 [4]: 806 µM

Compound: CCn1cc(C(CC(=O)NCCC2CCNCC2)c2cccc(C)c2)c2ccccc21.Cl (centres unmarked) [Compound 84, 3-(1-ethyl-1H-indol-3-yl)-N-(2-(piperidin-4-yl)ethyl)-3-(m-tolyl)propanamide hydrochloride salt]
- Initial screening of RNase P Inhibition [12]: 0.32
- IC50 [4]: 823 µM

Compound: c1ccc2c(CCNCC3CCNCC3)c[nH]c2c1 [Compound 18, 2-(1H-indol-3-yl)-N-(piperidin-4-ylmethyl)ethan-1-amine hydrochloride salt]
- Initial screening of RNase P Inhibition [12]: 1.05
